Test results published in PubChem BioAssay AID1963826 (Molecular Pharmacology Branch, DTP, NCI, 2024).

Tested on: 926638-142-R-J1-PDC complex spheroid viability
Test: Anticancer human tumor 926638-142-R-J1-PDC patient-derived endometrial carcinoma cell line growth inhibition [POLQ]
Settings: for IC50: curve of first compound; for viability, T/C: stronger effect = lower value
Summary of the method: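 PDC + HUVEC + MSC complex spheroids; POLQ inhibitors ± partner drugs; top conc. at/near clinical Cmax, else 10 microM (SN-38 1 microM), half-log dilutions; 37 degrees C, 5% CO2.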

[1] = second compound 0.0316 µM, first compound 0.0316 µM
[2] = second compound 0.0316 µM, first compound 0.1 µM
[3] = second compound 0.0316 µM, first compound 0.316 µM
[4] = second compound 0.0316 µM, first compound 1 µM
[5] = second compound 0.0316 µM, first compound 3.16 µM
[6] = second compound 0.0316 µM, first compound 10 µM
[7] = second compound 0.1 µM, first compound 0.0316 µM
[8] = second compound 0.1 µM, first compound 0.1 µM
[9] = second compound 0.1 µM, first compound 0.316 µM
[10] = second compound 0.1 µM, first compound 1 µM
[11] = second compound 0.1 µM, first compound 3.16 µM
[12] = second compound 0.1 µM, first compound 10 µM
[13] = second compound 0.316 µM, first compound 0.0316 µM
[14] = second compound 0.316 µM, first compound 0.1 µM
[15] = second compound 0.316 µM, first compound 0.316 µM
[16] = second compound 0.316 µM, first compound 1 µM
[17] = second compound 0.316 µM, first compound 3.16 µM
[18] = second compound 0.316 µM, first compound 10 µM
[19] = second compound 1 µM, first compound 0.0316 µM
[20] = second compound 1 µM, first compound 0.1 µM
[21] = second compound 1 µM, first compound 0.316 µM
[22] = second compound 1 µM, first compound 1 µM
[23] = second compound 1 µM, first compound 3.16 µM
[24] = second compound 1 µM, first compound 10 µM
[25] = second compound 3.16 µM, first compound 0.0316 µM
[26] = second compound 3.16 µM, first compound 0.1 µM
[27] = second compound 3.16 µM, first compound 0.316 µM
[28] = second compound 3.16 µM, first compound 1 µM
[29] = second compound 3.16 µM, first compound 3.16 µM
[30] = second compound 3.16 µM, first compound 10 µM
[31] = second compound 10 µM, first compound 0.0316 µM
[32] = second compound 10 µM, first compound 0.1 µM
[33] = second compound 10 µM, first compound 0.316 µM
[34] = second compound 10 µM, first compound 1 µM
[35] = second compound 10 µM, first compound 3.16 µM
[36] = second compound 10 µM, first compound 10 µM
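Also: spheroids exposed to drugs for one week before readout.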
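For viability, T/C in this document: percent viability relative to DMSO vehicle control wells set as 100%.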

## CC1COCCN1c1cc(C2(O)CC3CCC(C2)O3)c2cnn(-c3ccn[nH]3)c2n1 (stereo unspecified) + COC1C(OC(N)=O)C(O)C(Oc2ccc3c(O)c(NC(=O)c4ccc(O)c(CC=C(C)C)c4)c(=O)oc3c2C)OC1(C)C
Second compound 0.0316 µM
  IC50: 212 nM
Second compound 0.1 µM
  IC50: 204 nM
Second compound 0.316 µM
  IC50: 200 nM
Second compound 1 µM
  IC50: 217 nM
Second compound 3.16 µM
  IC50: 222 nM
Second compound 10 µM
  IC50: 181 nM
[1]
  viability, T/C: 106%
[2]
  viability, T/C: 74.5%
[3]
  viability, T/C: 35.6%
[4]
  viability, T/C: 17.5%
[5]
  viability, T/C: 7.23%
[6]
  viability, T/C: 1.82%
[7]
  viability, T/C: 108%
[8]
  viability, T/C: 64.9%
[9]
  viability, T/C: 46%
[10]
  viability, T/C: 12.8%
[11]
  viability, T/C: 6.56%
[12]
  viability, T/C: 1.94%
[13]
  viability, T/C: 102%
[14]
  viability, T/C: 69.1%
[15]
  viability, T/C: 37.4%
[16]
  viability, T/C: 16.5%
[17]
  viability, T/C: 7.59%
[18]
  viability, T/C: 1.6%
[19]
  viability, T/C: 86.9%
[20]
  viability, T/C: 75.8%
[21]
  viability, T/C: 36.8%
[22]
  viability, T/C: 12.9%
[23]
  viability, T/C: 7.07%
[24]
  viability, T/C: 1.87%
[25]
  viability, T/C: 90.5%
[26]
  viability, T/C: 77.7%
[27]
  viability, T/C: 36.5%
[28]
  viability, T/C: 15%
[29]
  viability, T/C: 6.73%
[30]
  viability, T/C: 2%
[31]
  viability, T/C: 91.4%
[32]
  viability, T/C: 69.4%
[33]
  viability, T/C: 31.1%
[34]
  viability, T/C: 13%
[35]
  viability, T/C: 7.88%
[36]
  viability, T/C: 1.74%

## O=C(Nc1ccc(O)c(NS(=O)(=O)c2ccc(F)cc2)c1)c1ccc(-c2ccccc2)cc1 + COC1C(OC(N)=O)C(O)C(Oc2ccc3c(O)c(NC(=O)c4ccc(O)c(CC=C(C)C)c4)c(=O)oc3c2C)OC1(C)C
Second compound 0.0316 µM
  IC50: > 10000 nM
Second compound 0.1 µM
  IC50: > 10000 nM
Second compound 0.316 µM
  IC50: > 10000 nM
Second compound 1 µM
  IC50: > 10000 nM
Second compound 3.16 µM
  IC50: > 10000 nM
Second compound 10 µM
  IC50: > 10000 nM
[1]
  viability, T/C: 89.2%
[2]
  viability, T/C: 87.5%
[3]
  viability, T/C: 109%
[4]
  viability, T/C: 99.4%
[5]
  viability, T/C: 103%
[6]
  viability, T/C: 69.1%
[7]
  viability, T/C: 91%
[8]
  viability, T/C: 96.8%
[9]
  viability, T/C: 98.6%
[10]
  viability, T/C: 101%
[11]
  viability, T/C: 94.8%
[12]
  viability, T/C: 87.3%
[13]
  viability, T/C: 108%
[14]
  viability, T/C: 101%
[15]
  viability, T/C: 82.2%
[16]
  viability, T/C: 101%
[17]
  viability, T/C: 94.8%
[18]
  viability, T/C: 66%
[19]
  viability, T/C: 90.6%
[20]
  viability, T/C: 88.4%
[21]
  viability, T/C: 89.6%
[22]
  viability, T/C: 98.3%
[23]
  viability, T/C: 99.9%
[24]
  viability, T/C: 80.9%
[25]
  viability, T/C: 108%
[26]
  viability, T/C: 88.3%
[27]
  viability, T/C: 94.5%
[28]
  viability, T/C: 118%
[29]
  viability, T/C: 94.6%
[30]
  viability, T/C: 85.7%
[31]
  viability, T/C: 97.7%
[32]
  viability, T/C: 103%
[33]
  viability, T/C: 93.8%
[34]
  viability, T/C: 94.7%
[35]
  viability, T/C: 104%
[36]
  viability, T/C: 69.4%

## COc1cccc2c1C(=O)c1c(O)c3c(c(O)c1C2=O)CC(O)(C(=O)CO)CC3OC1CC(N)C(O)C(C)O1 (stereo unspecified) + Cc1cccc(N(C)C(=O)C2C(O)CCN2c2nc(C)cc(C(F)(F)F)c2C#N)c1
Second compound 0.0316 µM
  IC50: 133 nM
Second compound 0.1 µM
  IC50: 144 nM
Second compound 0.316 µM
  IC50: 138 nM
Second compound 1 µM
  IC50: 102 nM
Second compound 3.16 µM
  IC50: 115 nM
Second compound 10 µM
  IC50: 124 nM
[1]
  viability, T/C: 76.8%
[2]
  viability, T/C: 59.4%
[3]
  viability, T/C: 21%
[4]
  viability, T/C: 2.89%
[5]
  viability, T/C: 0.19%
[6]
  viability, T/C: 0.26%
[7]
  viability, T/C: 68.6%
[8]
  viability, T/C: 65%
[9]
  viability, T/C: 18.5%
[10]
  viability, T/C: 3.26%
[11]
  viability, T/C: 0.2%
[12]
  viability, T/C: 0.33%
[13]
  viability, T/C: 79.3%
[14]
  viability, T/C: 61.9%
[15]
  viability, T/C: 19%
[16]
  viability, T/C: 2.18%
[17]
  viability, T/C: 0.15%
[18]
  viability, T/C: 0.25%
[19]
  viability, T/C: 71.6%
[20]
  viability, T/C: 50.4%
[21]
  viability, T/C: 17.4%
[22]
  viability, T/C: 2.2%
[23]
  viability, T/C: 0.14%
[24]
  viability, T/C: 0.24%
[25]
  viability, T/C: 82.1%
[26]
  viability, T/C: 54.8%
[27]
  viability, T/C: 15.1%
[28]
  viability, T/C: 2.08%
[29]
  viability, T/C: 0.25%
[30]
  viability, T/C: 0.32%
[31]
  viability, T/C: 70.5%
[32]
  viability, T/C: 58.4%
[33]
  viability, T/C: 14.2%
[34]
  viability, T/C: 1.62%
[35]
  viability, T/C: 0.26%
[36]
  viability, T/C: 0.24%
